ChEMBL document CHEMBL1201862, “PubChem BioAssay data set” (2004)
Blank lines part the entries; values can stand above or below the compound they belong to. Calls of active or inactive are those of the source.

How the values were obtained:
Type in all cases: functional
[1] = target: T1, Corticotropin-releasing factor receptor 2/Corticotropin-releasing factor-binding protein (Homo sapiens, UniProt P24387+Q13324); test: activators of CRF receptor 2 with binding protein – uHTS hits, confirmation (AID 602473); details: read-out: EC50_Mean
T1 sequence (Q13324 whole entry): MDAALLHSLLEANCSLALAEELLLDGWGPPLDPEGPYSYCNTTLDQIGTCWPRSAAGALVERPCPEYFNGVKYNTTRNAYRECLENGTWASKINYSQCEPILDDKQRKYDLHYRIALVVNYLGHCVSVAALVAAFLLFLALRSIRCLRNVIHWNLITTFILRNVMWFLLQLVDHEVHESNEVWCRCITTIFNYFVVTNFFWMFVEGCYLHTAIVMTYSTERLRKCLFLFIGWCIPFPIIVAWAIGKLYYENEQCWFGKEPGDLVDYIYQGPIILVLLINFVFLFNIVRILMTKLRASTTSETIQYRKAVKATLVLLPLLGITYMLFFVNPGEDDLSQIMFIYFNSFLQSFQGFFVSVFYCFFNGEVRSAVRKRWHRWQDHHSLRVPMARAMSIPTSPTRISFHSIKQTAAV
T1 sequence (P24387 whole entry): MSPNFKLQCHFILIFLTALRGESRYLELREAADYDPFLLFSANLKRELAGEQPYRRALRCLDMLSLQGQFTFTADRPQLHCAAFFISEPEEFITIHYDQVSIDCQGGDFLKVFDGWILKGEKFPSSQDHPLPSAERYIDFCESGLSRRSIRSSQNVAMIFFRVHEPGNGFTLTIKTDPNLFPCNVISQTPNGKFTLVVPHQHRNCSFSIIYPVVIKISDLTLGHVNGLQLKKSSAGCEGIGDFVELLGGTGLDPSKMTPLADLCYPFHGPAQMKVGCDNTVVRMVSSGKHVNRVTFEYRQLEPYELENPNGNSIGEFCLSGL

[2] = target: T2, Sentrin-specific protease 8 (Homo sapiens, UniProt Q96LD8); test: SENP8 protease inhibitors, SAR follow-up, biochemical, luminescence (AID 504501)
T2 sequence (Q96LD8 whole entry): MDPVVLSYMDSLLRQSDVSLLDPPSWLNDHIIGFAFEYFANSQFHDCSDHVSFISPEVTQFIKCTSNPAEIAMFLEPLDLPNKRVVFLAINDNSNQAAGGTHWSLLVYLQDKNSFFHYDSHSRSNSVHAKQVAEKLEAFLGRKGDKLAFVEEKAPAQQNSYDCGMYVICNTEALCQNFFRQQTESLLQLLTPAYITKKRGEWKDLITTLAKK

[3] = target: Serine/threonine-protein kinase PLK4 (Homo sapiens, UniProt O00444);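 also: PLK4 measured as one member of a kinome-wide kinase profiling panel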
[4] = target: Death-associated protein kinase 3 (Homo sapiens, UniProt O43293);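 also: measured as one member of a kinome-wide profiling panel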
[5] = target: Rho-associated protein kinase 2 (Homo sapiens, UniProt O75116)
[6] = target: Casein kinase I isoform gamma-1 (Homo sapiens, UniProt Q9HCP0);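 also: measured as the CSNK1G1 member of a kinome profiling panel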
[7] = target: Homeodomain-interacting protein kinase 2 (Homo sapiens, UniProt Q9H2X6);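 also: measured within a kinome-wide kinase profiling panel, HIPK2 being one panel member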
[8] = target: Mitogen-activated protein kinase 13 (Homo sapiens, UniProt O15264)
[9] = target: Mitogen-activated protein kinase kinase kinase 20 (Homo sapiens, UniProt Q9NYL2)
[10] = target: Glycogen synthase kinase-3 alpha (Homo sapiens, UniProt P49840);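 also: GSK3A result taken from a broad kinome-wide kinase panel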
[11] = target: Tyrosine-protein kinase ABL1 (Homo sapiens, UniProt P00519)
[12] = target: Mitogen-activated protein kinase 1 (Homo sapiens, UniProt P28482)
[13] = target: Serine/threonine-protein kinase Nek4 (Homo sapiens, UniProt P51957)
[14] = target: Cyclin-dependent kinase 1 (Homo sapiens, UniProt P06493);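 also: Kinome-wide panel profiling, with the target listed as panel member CDC2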
[15] = target: Serine/threonine-protein kinase DCLK1 (Homo sapiens, UniProt O15075);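 also: affinity for DCLK1 (listed as DCAMKL1) measured as one member of a kinome-wide kinase profiling panel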
[16] = target: BDNF/NT-3 growth factors receptor (Homo sapiens, UniProt Q16620);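 also: NTRK2 measured as one member of a broad kinome-wide kinase profiling panel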
[17] = target: Mitogen-activated protein kinase kinase kinase kinase 4 (Homo sapiens, UniProt O95819)
[18] = target: Serine/threonine-protein kinase 3 (Homo sapiens, UniProt Q13188);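 also: measured as one member of a kinome-wide kinase panel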

Sequence of Serine/threonine-protein kinase Nek4 (P51957 whole entry): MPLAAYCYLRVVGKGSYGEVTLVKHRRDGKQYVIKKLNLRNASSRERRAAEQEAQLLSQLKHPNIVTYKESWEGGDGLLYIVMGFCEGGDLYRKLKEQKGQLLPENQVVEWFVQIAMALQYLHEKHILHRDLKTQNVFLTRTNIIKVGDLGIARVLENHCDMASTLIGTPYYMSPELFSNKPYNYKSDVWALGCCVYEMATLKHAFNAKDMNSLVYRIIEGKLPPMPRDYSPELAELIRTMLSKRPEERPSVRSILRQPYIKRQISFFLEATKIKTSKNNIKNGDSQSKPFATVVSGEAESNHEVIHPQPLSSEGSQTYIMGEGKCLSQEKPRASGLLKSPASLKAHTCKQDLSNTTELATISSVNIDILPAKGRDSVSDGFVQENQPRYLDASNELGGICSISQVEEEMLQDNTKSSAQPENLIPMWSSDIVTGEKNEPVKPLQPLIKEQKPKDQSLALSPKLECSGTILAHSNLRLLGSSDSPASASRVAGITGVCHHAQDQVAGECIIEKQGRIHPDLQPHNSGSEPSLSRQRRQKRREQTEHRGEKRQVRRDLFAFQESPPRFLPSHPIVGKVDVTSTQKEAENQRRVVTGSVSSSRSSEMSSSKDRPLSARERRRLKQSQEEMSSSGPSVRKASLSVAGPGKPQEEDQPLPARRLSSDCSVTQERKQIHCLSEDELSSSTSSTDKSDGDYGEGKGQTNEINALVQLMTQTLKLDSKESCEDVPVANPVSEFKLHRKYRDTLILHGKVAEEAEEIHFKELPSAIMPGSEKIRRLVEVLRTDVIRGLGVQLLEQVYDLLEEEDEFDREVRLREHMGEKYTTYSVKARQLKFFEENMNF
Sequence of Homeodomain-interacting protein kinase 2 (Q9H2X6 whole entry): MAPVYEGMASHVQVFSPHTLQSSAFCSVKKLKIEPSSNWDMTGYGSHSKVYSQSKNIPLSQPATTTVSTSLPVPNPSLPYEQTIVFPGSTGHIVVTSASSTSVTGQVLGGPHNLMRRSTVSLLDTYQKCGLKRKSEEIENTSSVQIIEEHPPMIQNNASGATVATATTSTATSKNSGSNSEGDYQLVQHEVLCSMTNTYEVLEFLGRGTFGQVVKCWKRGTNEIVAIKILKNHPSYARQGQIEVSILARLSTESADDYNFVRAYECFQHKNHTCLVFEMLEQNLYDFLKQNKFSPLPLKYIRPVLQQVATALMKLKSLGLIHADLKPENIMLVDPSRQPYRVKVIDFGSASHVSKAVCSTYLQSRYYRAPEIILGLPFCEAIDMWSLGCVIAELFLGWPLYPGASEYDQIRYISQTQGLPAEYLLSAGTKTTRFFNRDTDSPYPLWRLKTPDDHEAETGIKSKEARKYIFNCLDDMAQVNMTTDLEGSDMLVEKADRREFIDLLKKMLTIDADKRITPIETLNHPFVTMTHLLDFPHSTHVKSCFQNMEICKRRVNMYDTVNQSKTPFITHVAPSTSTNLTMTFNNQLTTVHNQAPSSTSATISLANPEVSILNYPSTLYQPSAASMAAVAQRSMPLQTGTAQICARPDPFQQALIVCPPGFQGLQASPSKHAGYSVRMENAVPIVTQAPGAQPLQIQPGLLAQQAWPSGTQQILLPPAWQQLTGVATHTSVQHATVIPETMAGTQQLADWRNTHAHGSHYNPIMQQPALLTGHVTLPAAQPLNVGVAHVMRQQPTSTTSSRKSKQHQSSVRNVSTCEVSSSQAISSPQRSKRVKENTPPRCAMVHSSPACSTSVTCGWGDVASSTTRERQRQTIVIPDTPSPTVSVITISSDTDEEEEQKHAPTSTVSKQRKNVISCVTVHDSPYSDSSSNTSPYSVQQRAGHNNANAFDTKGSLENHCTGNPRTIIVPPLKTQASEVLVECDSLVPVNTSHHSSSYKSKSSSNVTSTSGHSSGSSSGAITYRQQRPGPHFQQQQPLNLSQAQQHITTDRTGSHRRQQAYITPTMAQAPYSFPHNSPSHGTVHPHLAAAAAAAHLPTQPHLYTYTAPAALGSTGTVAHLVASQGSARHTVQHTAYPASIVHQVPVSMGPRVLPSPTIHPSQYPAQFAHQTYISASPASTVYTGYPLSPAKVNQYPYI
Sequence of Cyclin-dependent kinase 1 (P06493 whole entry): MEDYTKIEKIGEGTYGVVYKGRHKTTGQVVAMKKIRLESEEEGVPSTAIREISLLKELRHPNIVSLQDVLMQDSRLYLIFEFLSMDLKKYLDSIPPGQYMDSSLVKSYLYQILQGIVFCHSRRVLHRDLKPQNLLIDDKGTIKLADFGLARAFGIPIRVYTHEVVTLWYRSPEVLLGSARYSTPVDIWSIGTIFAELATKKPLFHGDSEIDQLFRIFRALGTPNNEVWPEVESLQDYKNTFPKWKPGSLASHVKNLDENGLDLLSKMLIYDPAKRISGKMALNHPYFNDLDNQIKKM
Sequence of Death-associated protein kinase 3 (O43293 whole entry): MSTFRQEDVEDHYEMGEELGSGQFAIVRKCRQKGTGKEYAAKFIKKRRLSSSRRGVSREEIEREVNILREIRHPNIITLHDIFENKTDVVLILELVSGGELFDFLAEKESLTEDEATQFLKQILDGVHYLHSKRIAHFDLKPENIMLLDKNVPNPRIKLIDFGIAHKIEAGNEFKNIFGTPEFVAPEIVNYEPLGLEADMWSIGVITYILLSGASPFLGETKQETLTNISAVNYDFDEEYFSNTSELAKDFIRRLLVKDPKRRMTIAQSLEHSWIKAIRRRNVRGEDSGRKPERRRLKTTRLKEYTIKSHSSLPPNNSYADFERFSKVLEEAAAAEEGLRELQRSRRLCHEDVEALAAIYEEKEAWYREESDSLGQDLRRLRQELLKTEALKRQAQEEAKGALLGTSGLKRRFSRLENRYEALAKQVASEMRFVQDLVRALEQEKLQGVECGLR
Sequence of Serine/threonine-protein kinase DCLK1 (O15075 whole entry): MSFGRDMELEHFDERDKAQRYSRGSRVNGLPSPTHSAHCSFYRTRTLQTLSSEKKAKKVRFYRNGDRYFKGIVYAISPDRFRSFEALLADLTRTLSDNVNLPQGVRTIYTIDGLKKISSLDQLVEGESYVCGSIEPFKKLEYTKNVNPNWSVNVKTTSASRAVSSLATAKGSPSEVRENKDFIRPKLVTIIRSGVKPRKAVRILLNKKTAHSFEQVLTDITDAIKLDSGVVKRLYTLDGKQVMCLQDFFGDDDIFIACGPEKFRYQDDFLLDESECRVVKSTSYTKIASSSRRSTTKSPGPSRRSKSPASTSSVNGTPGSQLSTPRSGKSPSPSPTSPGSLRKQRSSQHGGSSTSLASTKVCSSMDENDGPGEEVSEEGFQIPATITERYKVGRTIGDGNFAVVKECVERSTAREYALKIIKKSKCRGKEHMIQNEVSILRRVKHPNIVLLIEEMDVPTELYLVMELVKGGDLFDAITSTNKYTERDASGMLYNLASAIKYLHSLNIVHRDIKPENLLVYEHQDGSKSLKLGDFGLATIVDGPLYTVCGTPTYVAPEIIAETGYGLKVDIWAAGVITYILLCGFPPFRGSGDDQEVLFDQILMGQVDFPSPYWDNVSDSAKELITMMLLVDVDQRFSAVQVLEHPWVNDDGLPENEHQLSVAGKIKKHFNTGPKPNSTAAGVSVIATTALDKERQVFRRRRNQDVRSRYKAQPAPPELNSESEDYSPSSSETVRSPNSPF
Sequence of Mitogen-activated protein kinase kinase kinase kinase 4 (O95819 whole entry): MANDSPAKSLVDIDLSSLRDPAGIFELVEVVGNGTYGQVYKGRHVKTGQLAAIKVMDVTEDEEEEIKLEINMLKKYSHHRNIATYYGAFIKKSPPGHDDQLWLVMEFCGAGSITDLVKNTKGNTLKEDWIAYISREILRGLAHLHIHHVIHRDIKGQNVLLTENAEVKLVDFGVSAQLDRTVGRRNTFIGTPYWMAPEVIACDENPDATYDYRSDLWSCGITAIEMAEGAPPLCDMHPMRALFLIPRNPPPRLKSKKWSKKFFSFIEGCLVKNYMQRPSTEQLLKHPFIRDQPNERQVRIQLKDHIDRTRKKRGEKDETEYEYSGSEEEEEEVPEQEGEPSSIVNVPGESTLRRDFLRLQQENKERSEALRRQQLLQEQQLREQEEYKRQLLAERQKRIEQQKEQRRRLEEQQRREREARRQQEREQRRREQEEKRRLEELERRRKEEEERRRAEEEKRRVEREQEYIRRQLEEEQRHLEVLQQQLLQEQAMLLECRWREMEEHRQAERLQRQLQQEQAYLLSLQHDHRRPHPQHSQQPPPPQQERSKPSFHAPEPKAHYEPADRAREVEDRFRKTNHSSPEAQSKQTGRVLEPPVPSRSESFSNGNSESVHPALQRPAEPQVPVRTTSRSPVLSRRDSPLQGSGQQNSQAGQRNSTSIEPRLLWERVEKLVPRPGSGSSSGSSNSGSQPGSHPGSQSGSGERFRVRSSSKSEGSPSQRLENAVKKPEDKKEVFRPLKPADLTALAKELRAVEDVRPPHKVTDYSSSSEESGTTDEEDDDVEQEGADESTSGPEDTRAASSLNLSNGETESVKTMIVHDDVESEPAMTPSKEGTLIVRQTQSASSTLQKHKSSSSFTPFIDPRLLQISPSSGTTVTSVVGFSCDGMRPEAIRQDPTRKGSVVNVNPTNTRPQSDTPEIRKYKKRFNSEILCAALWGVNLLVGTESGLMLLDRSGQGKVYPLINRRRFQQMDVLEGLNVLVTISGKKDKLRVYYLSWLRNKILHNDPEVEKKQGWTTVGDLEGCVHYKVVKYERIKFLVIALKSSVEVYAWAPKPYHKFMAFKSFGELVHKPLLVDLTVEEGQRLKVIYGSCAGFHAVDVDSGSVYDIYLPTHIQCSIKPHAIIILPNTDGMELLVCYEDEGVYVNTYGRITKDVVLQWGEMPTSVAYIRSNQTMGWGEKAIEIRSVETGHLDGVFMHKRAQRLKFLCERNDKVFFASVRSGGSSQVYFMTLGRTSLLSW

- EC50 [1]: > 53000 nM (inactive)
SMILES: O=C(COC(=O)c1ccc([N+](=O)[O-])s1)Nc1cccc(S(=O)(=O)/N=C2/CCCCCN2)c1

SMILES: COc1ccc(C(C[N+](=O)[O-])c2c(C)[nH]n(-c3ccccc3)c2=O)cc1 (stereo not drawn)
- IC50 [2]: 28100 nM (active)

SMILES: Oc1c2ccccc2c2c3c(cccc13)N=N2 [SP-600125]
- Ki [3]: 200 nM (active)
- Ki [4]: 398 nM (active)
- Ki [5]: 3160 nM (active)
- Ki [6]: > 6310 nM (inactive)
- Ki [7]: 200 nM (active)
- Ki [8]: > 7940 nM (inactive)
- Ki [9]: 501 nM (active)
- Ki [10]: 1260 nM (active)
- Ki [11]: > 631 nM (inactive)
- Ki [12]: 5010 nM (active)
- Ki [13]: 1000 nM (active)
- Ki [14]: 1000 nM (active)
- Ki [15]: > 10000 nM (inactive)
- Ki [16]: 794 nM (active)
- Ki [17]: 316 nM (active)
- Ki [18]: 316 nM (active)
